Laboratory results reported in publication PMC3089805 (Chemmedchem, 2010).
In brackets after ≈: the same amount, converted by molar mass.

Assays:
C. jejuni strain H840 = experiment: MIC determination, liquid microdilution, C. jejuni; assay type: cell-based; conditions: Campylobacter jejuni, H840, 27 h, read-out: MIC C. jejuni
H. pylori strain 26695 = experiment: MIC determination, liquid microdilution, H. pylori; assay type: cell-based; conditions: Helicobacter pylori, 26695, 27 h, read-out: MIC H. pylori

MIC (C. jejuni strain H840)	MIC (H. pylori strain 26695)	SMILES
23.9 µM (≈ 8.01 µg/mL)	3.4 µM (≈ 1.14 µg/mL)	O=C(Nc1ncc([N+](=O)[O-])s1)c1ccc(F)cc1C(F)(F)F [Analogue 35, 4-Fluoro-N-(5-nitrothiazol-2-yl)-2-(trifluoromethyl)benzamide]
17.1 µM (≈ 6.01 µg/mL)	1.1 µM (≈ 0.387 µg/mL)	O=C(Nc1ncc([N+](=O)[O-])s1)c1cc(C(F)(F)F)ccc1Cl [Analogue 39, 2-Chloro-N-(5-nitrothiazol-2-yl)-5-(trifluoromethyl)benzamide]
11.4 µM (≈ 3 µg/mL)	0.7 µM (≈ 0.184 µg/mL)	O=C(Cc1ccccc1)Nc1ncc([N+](=O)[O-])s1 [Analogue 43, N-(5-Nitrothiazol-2-yl)-2-phenylacetamide]
1.8 µM (≈ 0.499 µg/mL)	21.6 µM (≈ 5.99 µg/mL)	O=C(CCc1ccccc1)Nc1ncc([N+](=O)[O-])s1 [Analogue 44, N-(5-Nitrothiazol-2-yl)-3-phenylpropanamide]
1.3 µM (≈ 0.379 µg/mL)	0.3 µM (≈ 0.0874 µg/mL)	O=C(CCCc1ccccc1)Nc1ncc([N+](=O)[O-])s1 [Analogue 45, N-(5-Nitrothiazol-2-yl)-4-phenylbutanamide]
2.6 µM (≈ 0.752 µg/mL)	13.8 µM (≈ 3.99 µg/mL)	O=C(Nc1ncc([N+](=O)[O-])s1)[C@@H]1C[C@H]1c1ccccc1 [Analogue 46, (1R,2R)-N-(5-Nitrothiazol-2-yl)-2-phenylcyclopropanecarboxamide]
26.5 µM (≈ 7.99 µg/mL)	1.7 µM (≈ 0.512 µg/mL)	CC1=C(C(=O)Nc2ncc([N+](=O)[O-])s2)Cc2ccccc21 [Analogue 47, 3-Methyl-N-(5-nitrothiazol-2-yl)indene-2-carboxamide]
13.9 µM (≈ 2.99 µg/mL)	3.5 µM (≈ 0.753 µg/mL)	CCCC(=O)Nc1ncc([N+](=O)[O-])s1 [Analogue 49, N-(5-Nitrothiazol-2-yl)butyramide]
5.5 µM (≈ 1.49 µg/mL)	1.4 µM (≈ 0.38 µg/mL)	CCCCCCCC(=O)Nc1ncc([N+](=O)[O-])s1 [Analogue 51, N-(5-Nitrothiazol-2-yl)octanamide]
107 µM (≈ 32 µg/mL)	0.8 µM (≈ 0.24 µg/mL)	CCCCCCCCCC(=O)Nc1ncc([N+](=O)[O-])s1 [Analogue 52, N-(5-Nitrothiazol-2-yl)decanamide]
2.7 µM (≈ 0.743 µg/mL)	0.3 µM (≈ 0.0826 µg/mL)	O=C(C=Cc1ccccc1)Nc1ncc([N+](=O)[O-])s1 [Analogue 54, N-(5-Nitrothiazol-2-yl)cinnamamide]
93.2 µM (≈ 32 µg/mL)	0.5 µM (≈ 0.172 µg/mL)	O=C(/C=C/c1ccc(C(F)(F)F)cc1)Nc1ncc([N+](=O)[O-])s1 [Analogue 55, (E)-N-(5-Nitrothiazol-2-yl)-3-(4-(trifluoromethyl)phenyl)acrylamide]
20.2 µM (≈ 8.02 µg/mL)	2.8 µM (≈ 1.11 µg/mL)	O=C(Nc1ncc([N+](=O)[O-])s1)c1cc(Br)c(Br)o1 [Analogue 63, 4,5-Dibromo-N-(5-nitrothiazol-2-yl)furan-2-carboxamide]
102 µM (≈ 32 µg/mL)	2.4 µM (≈ 0.757 µg/mL)	O=C(Nc1ncc([N+](=O)[O-])s1)c1ccc(-c2ccccc2)o1 [Analogue 65, N-(5-Nitrothiazol-2-yl)-5-phenylfuran-2-carboxamide]
22.9 µM (≈ 8.01 µg/mL)	1.1 µM (≈ 0.385 µg/mL)	O=C(Nc1ncc([N+](=O)[O-])s1)c1ccc(-c2cccc(Cl)c2)o1 [Analogue 66, 5-(3-Chlorophenyl)-N-(5-nitrothiazol-2-yl)furan-2-carboxamide]

More lines, now with the values behind:

SMILES	MIC (C. jejuni strain H840)	MIC (H. pylori strain 26695)
O=C(Nc1ncc([N+](=O)[O-])s1)c1cccc(F)c1 [Analogue 7, 3-Fluoro-N-(5-nitrothiazol-2-yl)benzamide]	11.2 µM (≈ 2.99 µg/mL)	0.9 µM (≈ 0.241 µg/mL)
O=C(Nc1ncc([N+](=O)[O-])s1)c1ccc(F)cc1F [Analogue 9, 2,4-Difluoro-N-(5-nitrothiazol-2-yl)benzamide]	7 µM (≈ 2 µg/mL)	0.4 µM (≈ 0.114 µg/mL)
O=C(Nc1ncc([N+](=O)[O-])s1)c1ccc(F)c(F)c1 [Analogue 10, 3,4-Difluoro-N-(5-nitrothiazol-2-yl)benzamide]	5.3 µM (≈ 1.51 µg/mL)	1.8 µM (≈ 0.513 µg/mL)
O=C(Nc1ncc([N+](=O)[O-])s1)c1c(F)cccc1F [Analogue 11, 2,6-Difluoro-N-(5-nitrothiazol-2-yl)benzamide]	14 µM (≈ 3.99 µg/mL)	0.7 µM (≈ 0.2 µg/mL)
O=C(Nc1ncc([N+](=O)[O-])s1)c1c(F)cc(F)cc1F [Analogue 12, 2,4,6-Trifluoro-N-(5-nitrothiazol-2-yl)benzamide]	9.9 µM (≈ 3 µg/mL)	4.9 µM (≈ 1.49 µg/mL)
O=C(Nc1ncc([N+](=O)[O-])s1)c1cc(F)c(F)c(F)c1 [Analogue 13, 3,4,5-Trifluoro-N-(5-nitrothiazol-2-yl)benzamide]	4.9 µM (≈ 1.49 µg/mL)	1.2 µM (≈ 0.364 µg/mL)
O=C(Nc1ncc([N+](=O)[O-])s1)c1cc(F)c(F)cc1F [Analogue 14, 2,4,5-Trifluoro-N-(5-nitrothiazol-2-yl)benzamide]	9.9 µM (≈ 3 µg/mL)	0.8 µM (≈ 0.243 µg/mL)
O=C(Nc1ncc([N+](=O)[O-])s1)c1cc(F)c(F)c(F)c1F [Analogue 15, 2,3,4,5-Tetrafluoro-N-(5-nitrothiazol-2-yl)benzamide]	4.7 µM (≈ 1.51 µg/mL)	1.2 µM (≈ 0.385 µg/mL)
O=C(Nc1ncc([N+](=O)[O-])s1)c1c(F)c(F)c(F)c(F)c1F [Analogue 16, 2,3,4,5,6-Pentafluoro-N-(5-nitrothiazol-2-yl)benzamide]	–	7.4 µM (≈ 2.51 µg/mL)
N#Cc1cccc(C(=O)Nc2ncc([N+](=O)[O-])s2)c1 [Analogue 20, 3-Cyano-N-(5-nitrothiazol-2-yl)benzamide]	36.5 µM (≈ 10 µg/mL)	4.1 µM (≈ 1.12 µg/mL)
N#Cc1ccc(C(=O)Nc2ncc([N+](=O)[O-])s2)cc1 [Analogue 21, 4-Cyano-N-(5-nitrothiazol-2-yl)benzamide]	43.8 µM (≈ 12 µg/mL)	9.1 µM (≈ 2.5 µg/mL)
O=C(Nc1ncc([N+](=O)[O-])s1)c1ccccc1C(F)(F)F [Analogue 22, N-(5-Nitrothiazol-2-yl)-2-(trifluoromethyl)benzamide]	18.9 µM (≈ 6 µg/mL)	1.6 µM (≈ 0.508 µg/mL)
O=C(Nc1ncc([N+](=O)[O-])s1)c1ccc([N+](=O)[O-])cc1 [Analogue 27, 4-Nitro-N-(5-nitrothiazol-2-yl)benzamide]	13.6 µM (≈ 4 µg/mL)	1.3 µM (≈ 0.383 µg/mL)
COc1ccccc1C(=O)Nc1ncc([N+](=O)[O-])s1 [Analogue 28, 2-Methoxy-N-(5-nitrothiazol-2-yl)benzamide]	17.9 µM (≈ 5 µg/mL)	1.8 µM (≈ 0.503 µg/mL)
COc1cccc(C(=O)Nc2ncc([N+](=O)[O-])s2)c1 [Analogue 29, 3-Methoxy-N-(5-nitrothiazol-2-yl)benzamide]	7.2 µM (≈ 2.01 µg/mL)	1.3 µM (≈ 0.363 µg/mL)
COc1cc(C(F)(F)F)ccc1C(=O)Nc1ncc([N+](=O)[O-])s1 [Analogue 32, 2-Methoxy-N-(5-nitrothiazol-2-yl)-4-(trifluoromethyl)benzamide]	–	0.9 µM (≈ 0.313 µg/mL)
COc1cc([N+](=O)[O-])ccc1C(=O)Nc1ncc([N+](=O)[O-])s1 [Analogue 33, 2-Methoxy-4-nitro-N-(5-nitrothiazol-2-yl)benzamide]	9.3 µM (≈ 3.02 µg/mL)	0.6 µM (≈ 0.195 µg/mL)
O=C(Nc1ncc([N+](=O)[O-])s1)c1cccc([N+](=O)[O-])c1O [Analogue 34, 2-Hydroxy-3-nitro-N-(5-nitrothiazol-2-yl)benzamide]	103 µM (≈ 32 µg/mL)	19.3 µM (≈ 5.99 µg/mL)
O=C(Nc1ncc([N+](=O)[O-])s1)c1ccc(C(F)(F)F)cc1[N+](=O)[O-] [Analogue 36, 2-Nitro-N-(5-nitrothiazol-2-yl)-4-(trifluoromethyl)benzamide]	88.3 µM (≈ 32 µg/mL)	8.3 µM (≈ 3.01 µg/mL)
O=C(Nc1ncc([N+](=O)[O-])s1)c1ccc(F)c([N+](=O)[O-])c1 [Analogue 37, 4-Fluoro-3-nitro-N-(5-nitrothiazol-2-yl)benzamide]	51.2 µM (≈ 16 µg/mL)	1.6 µM (≈ 0.5 µg/mL)
